For 18 compounds, IC50 results are on record in US20220242870A1, “HETEROCYCLE-FUSED PYRIMIDINE DERIVATIVE AND USE THEREOF” (VORONOI Inc., priority 2019, published 2022).

The target in the first assay is T1, human FLT3-ITD enzyme (Homo sapiens, UniProt P36888).
T1 sequence (P36888 1-993): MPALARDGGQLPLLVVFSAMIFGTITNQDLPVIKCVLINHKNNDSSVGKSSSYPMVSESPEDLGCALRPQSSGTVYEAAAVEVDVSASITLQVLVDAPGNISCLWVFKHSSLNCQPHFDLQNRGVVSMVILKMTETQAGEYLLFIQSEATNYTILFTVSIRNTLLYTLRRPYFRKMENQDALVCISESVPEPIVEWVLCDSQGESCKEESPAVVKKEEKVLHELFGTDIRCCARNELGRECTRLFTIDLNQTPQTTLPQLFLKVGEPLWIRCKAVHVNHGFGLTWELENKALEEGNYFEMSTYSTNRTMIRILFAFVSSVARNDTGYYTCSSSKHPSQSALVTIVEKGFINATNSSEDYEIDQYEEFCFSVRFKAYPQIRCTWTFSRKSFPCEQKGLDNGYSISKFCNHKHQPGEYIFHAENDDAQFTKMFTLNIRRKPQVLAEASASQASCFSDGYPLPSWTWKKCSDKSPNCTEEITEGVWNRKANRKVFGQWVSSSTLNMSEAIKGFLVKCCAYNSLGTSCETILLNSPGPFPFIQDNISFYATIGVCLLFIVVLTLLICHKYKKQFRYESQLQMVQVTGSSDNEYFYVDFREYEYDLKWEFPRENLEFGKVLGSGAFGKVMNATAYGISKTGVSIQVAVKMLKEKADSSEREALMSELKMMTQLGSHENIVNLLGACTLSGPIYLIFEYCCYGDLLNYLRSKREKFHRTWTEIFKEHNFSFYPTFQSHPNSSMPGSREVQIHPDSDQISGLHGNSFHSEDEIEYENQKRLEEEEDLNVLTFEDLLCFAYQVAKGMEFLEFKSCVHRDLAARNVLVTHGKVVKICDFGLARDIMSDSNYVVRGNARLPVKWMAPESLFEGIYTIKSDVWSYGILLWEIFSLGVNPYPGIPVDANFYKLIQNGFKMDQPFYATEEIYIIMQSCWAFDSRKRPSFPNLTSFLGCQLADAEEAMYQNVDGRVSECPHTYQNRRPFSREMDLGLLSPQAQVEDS
The assay can be described thus: FLT3 enzyme inhibitory ability (ADP-Glo kinase assay). Format: biochemical. The note with it: human FLT3-ITD enzyme 10 ng, ATP 10 μM, 25° C. 1 hour. How it is done: The inhibitory activities of the example compounds according to the present invention to the FLT3-ITD enzyme were evaluated. Specifically, the compound of the present invention was reacted with a purified human FLT3-ITD enzyme (Signalchem). A composition of 40 mM Tris-HCl pH 7.4, 20 mM MgCl2, 0.5 mg/mL BSA and 50 μM DTT was used as a reaction buffer, and reactions of all test matters were performed on the reaction buffer. Upon the test, human FLT3-ITD enzyme (10 ng), purified ATP (10 μM) and a specific substrate solution were reacted at 25° C. for 1 hour, and then the enzyme activity was identified using an in vitro ADP-Glo™ kinase assay (Promega). The enzyme activity reaction solution, the ADP-Glo reaction solution and the enzyme ability detection solution were reacted in a ratio of 2:2:1, and the activity inhibition degree of the enzyme was measured as luminescence. Using the solvent-treated group that was not treated with the compound as a control group, the enzyme activity inhibition degree according to the treatment concentration of each compound was calculated based on the enzyme activity fluorescence degree, and the concentration of each compound that inhibited 50%, IC50 (nM), was determined using Prism Software (version 5.01, GraphPad).
(ADP-Glo turns the ADP formed in a reaction into a luminescent signal.)
As for `COc1cc(-c2cnn(C)c2)ccc1Nc1nc(N2N=CCC2c2ccccc2)c2sccc2n1` (stereo not drawn) [Example 42, N-(2-methoxy-4-(1-methyl-1H-pyrazol-4-yl)phenyl)-4-(5-phenyl-4,5-dihydro-1H-pyrazol-1-yl)thieno[3,2-d]pyrimidin-2-amine], the IC50 (usually the concentration that gives 50% inhibition) is > 500 nM. `Cc1cc(Nc2nc(N3N=CCC3c3ccccc3)c3sccc3n2)cc(C)c1OCCCN1CCCC1` (stereo not drawn) [Example 49, N-(3,5-dimethyl-4-(3-(pyrrolidin-1-yl)propoxy)phenyl)-4-(5-phenyl-4,5-dihydro-1H-pyrazol-1-yl)thieno[3,2-d]pyrimidin-2-amine]: the IC50 is > 500 nM.

Consider `Cc1cc(Nc2nc(N3N=CCC3c3ccccc3)c3sccc3n2)cc(C)c1OCCCN1CCN(C)CC1` (stereo not drawn) [Example 50, N-(3,5-dimethyl-4-(3-(4-methylpiperazin-1-yl)propoxy)phenyl)-4-(5-phenyl-4,5-dihydro-1H-pyrazol-1-yl)thieno[3,2-d]pyrimidin-2-amine], for which the 50% inhibitory concentration (IC50) was > 500 nM. `CN1CCN(c2ccc(Nc3nc(N4N=CCC4c4ccccc4)c4sccc4n3)cc2C(F)(F)F)CC1` (stereo not drawn) [Example 53, N-(4-(4-methylpiperazin-1-yl)-3-(trifluoromethyl)phenyl)-4-(5-phenyl-4,5-dihydro-1H-pyrazol-1-yl)thieno[3,2-d]pyrimidin-2-amine]: the half-inhibitory concentration (IC50) is > 500 nM. On to `CN1CCN(Cc2ccc(Nc3nc(N4N=CCC4c4ccccc4)c4sccc4n3)cc2C(F)(F)F)CC1` (stereo not drawn) [Example 54, N-(4-((4-methylpiperazin-1-yl)methyl)-3-(trifluoromethyl)phenyl)-4-(5-phenyl-4,5-dihydro-1H-pyrazol-1-yl)thieno[3,2-d]pyrimidin-2-amine], for which the 50% inhibitory concentration (IC50) was > 500 nM.

Regarding `CN1CCN(C2CCN(c3c(F)cc(Nc4nc(N5N=CCC5c5ccccc5)c5sccc5n4)cc3F)CC2)CC1` (stereo not drawn) [Example 55, N-(3,5-difluoro-4-(4-(4-methylpiperazin-1-yl)piperidin-1-yl)phenyl)-4-(5-phenyl-4,5-dihydro-1H-pyrazol-1-yl)thieno[3,2-d]pyrimidin-2-amine], the IC50 was > 500 nM. The same measure, in the same setting: the result for `CCN1CCN(c2c(F)cc(Nc3nc(N4N=CCC4c4ccccc4)c4sccc4n3)cc2F)CC1` (stereo not drawn) [Example 56, N-(4-(4-ethylpiperazin-1-yl)-3,5-difluorophenyl)-4-(5-phenyl-4,5-dihydro-1H-pyrazol-1-yl)thieno[3,2-d]pyrimidin-2-amine] reads > 500 nM.

In a further assay the target is T2, human GST-HPK1 (1-346) (Homo sapiens, UniProt Q92918).
T2 construct: purified human GST-HPK1 (1-346, Signalchem) enzyme; purchased Signalchem
T2 sequence (Q92918 1-346): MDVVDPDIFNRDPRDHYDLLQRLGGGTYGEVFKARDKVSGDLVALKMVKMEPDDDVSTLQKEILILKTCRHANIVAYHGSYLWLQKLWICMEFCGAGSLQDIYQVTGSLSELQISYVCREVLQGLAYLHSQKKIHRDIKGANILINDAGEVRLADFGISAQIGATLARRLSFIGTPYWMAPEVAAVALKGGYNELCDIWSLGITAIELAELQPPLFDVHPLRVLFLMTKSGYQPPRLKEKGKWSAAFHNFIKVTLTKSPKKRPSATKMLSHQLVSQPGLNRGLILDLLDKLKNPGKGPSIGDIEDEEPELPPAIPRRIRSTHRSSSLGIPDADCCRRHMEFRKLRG
The assay is described as follows: HPK1 enzyme inhibitory ability (ADP-Glo kinase assay). Format: biochemical. The note with it: human GST-HPK1 3 ng, ATP 3 uM, 25° C. 2 hours. How it is done: In order to evaluate the inhibitory activities of the example compounds according to the present invention on the HPK1 (hematopoietic progenitor kinase 1) enzyme, the following experiment was performed. The example compounds were reacted with the purified human GST-HPK1 (1-346, Signalchem) enzyme to evaluate the enzyme inhibitory ability by the following method. As the reaction buffer, a composition of 40 mM Tris-HCl pH 7.4, 20 mM MgCl2, 0.5 mg/mL BSA and 50 uM DTT was used, and reactions of all test matters were performed on the reaction buffer. Upon the test, the human GST-HPK1 (3 ng) enzyme, the purified ATP (3 uM) and a specific substrate solution were reacted at 25° C. for 2 hours, and then the enzyme activity was identified using an in vitro ADP-Glo™ kinase assay (promega). The enzyme activity reaction solution, the ADP-Glo reaction solution and the enzyme ability detection solution were reacted in a ratio of 2:2:1 to measure luminescence. The enzyme activity inhibition degree according to the treatment concentrations of the respective compounds was calculated based on the fluorescence of the enzyme activity of the solvent control group that was not treated with the compound, where the concentration of each compound that inhibited enzyme activity inhibition by 50% was determined as an IC50 (nM) value.
`COc1cc(N2CCN(C)CC2)ccc1Nc1nc(N2OCC[C@H]2c2ccccc2)c2cc[nH]c2n1` [Example 80, (S)-N-(2-methoxy-4-(4-methylpiperazin-1-yl)phenyl)-4-(3-phenylisoxazolidin-2-yl)-7H-pyrrolo[2,3-d]pyrimidin-2-amine]: the half-maximal inhibitory concentration (IC50) is > 500 nM. Regarding `c1ccc([C@@H]2CCON2c2nc(Nc3ccc(N4CCC(N5CCN(C6CC6)CC5)CC4)cc3)nc3[nH]ccc23)cc1` [Example 86, (S)-N-(4-(4-(4-cyclopropylpiperazin-1-yl)piperidin-1-yl)phenyl)-4-(3-phenylisoxazolidin-2-yl)-7H-pyrrolo[2,3-d]pyrimidin-2-amine], the IC50 was > 500 nM. The same measure, in the same setting: with `COc1cc(N2CCC(N3CCN(C)CC3)CC2)ccc1Nc1nc(N2OCC[C@H]2c2ccccc2)c2cc[nH]c2n1` [Example 88, (S)-N-(2-methoxy-4-(4-(4-methylpiperazin-1-yl)piperidin-1-yl)phenyl)-4-(3-phenylisoxazolidin-2-yl)-7H-pyrrolo[2,3-d]pyrimidin-2-amine] the figure was > 500 nM; with `COc1cc(C(=O)N2CCC(N3CCOCC3)CC2)ccc1Nc1nc(N2OCC[C@H]2c2ccccc2)c2cc[nH]c2n1` [Example 97, (S)-(3-methoxy-4-((4-(3-phenylisoxazolidin-2-yl)-7H-pyrrolo[2,3-d]pyrimidin-2-yl)amino)phenyl)(4-morpholinopiperidin-1-yl)methanone], > 500 nM; with `COc1cc(C(=O)N2CCC(N3CCN(C)CC3)CC2)ccc1Nc1nc(N2OCC[C@H]2c2ccccc2)c2cc[nH]c2n1` [Example 98, (S)-(3-methoxy-4-((4-(3-phenylisoxazolidin-2-yl)-7H-pyrrolo[2,3-d]pyrimidin-2-yl)amino)phenyl)(4-(4-methylpiperazin-1-yl)piperidin-1-yl)methanone], > 500 nM. Regarding `Cc1cc(Nc2nc(N3OCC[C@H]3c3ccccc3)c3cc[nH]c3n2)cc(C)c1OCCCN1CCN(C)CC1` [Example 102, (S)-N-(3,5-dimethyl-4-(3-(4-methylpiperazin-1-yl)propoxy)phenyl)-4-(3-phenylisoxazolidin-2-yl)-7H-pyrrolo[2,3-d]pyrimidin-2-amine], the half-maximal inhibitory concentration (IC50) was ≥ 250 nM. In the case of `CN(C)C(=O)Cn1cc(Nc2nc(N3OCC[C@H]3c3ccccc3)c3cc[nH]c3n2)cn1` [Example 103, S-N,N-dimethyl-2-(4-((4-(3-phenylisoxazolidin-2-yl)-7H-pyrrolo[2,3-d]pyrimidin-2-yl)amino)-1H-pyrazol-1-yl)acetamide], the IC50 is > 500 nM. For the compound `COc1cc2c(cc1Nc1nc(N3OCC[C@H]3c3ccccc3)c3cc[nH]c3n1)CN(C)CC2` [Example 106, (S)-6-methoxy-2-methyl-N-(4-(3-phenylisoxazolidin-2-yl)-7H-pyrrolo[2,3-d]pyrimidin-2-yl)-1,2,3,4-tetrahydroisoquinolin-7-amine], the IC50 was > 500 nM. Regarding `COc1cc2c(cc1Nc1nc(N3OCC[C@H]3c3ccccc3)c3cc[nH]c3n1)CNCC2` [Example 107, (S)-6-methoxy-N-(4-(3-phenylisoxazolidin-2-yl)-7H-pyrrolo[2,3-d]pyrimidin-2-yl)-1,2,3,4-tetrahydroisoquinolin-7-amine], the IC50 is > 500 nM. With `COc1cc2c(cc1Nc1nc(N3OCC[C@H]3c3ccccc3)c3cc[nH]c3n1)C(=O)NCC2` [Example 108, (S)-6-methoxy-7-((4-(3-phenylisoxazolidin-2-yl)-7H-pyrrolo[2,3-d]pyrimidin-2-yl)amino)-3,4-dihydroisoquinolin-1(2H)-one], the IC50 was ≥ 250 nM. On the same count and under the same terms, the result for `CC(=O)N1CCc2cc(Nc3nc(N4OCC[C@H]4c4ccccc4)c4cc[nH]c4n3)ccc2C1` [Example 112, (S)-1-(6-((4-(3-phenylisoxazolidin-2-yl)-7H-pyrrolo[2,3-d]pyrimidin-2-yl)amino)-3,4-dihydroisoquinolin-2(1H)-yl)ethan-1-one] reads > 500 nM.
